Reference: US20170334899A1, “AMINO-SUBSTITUTED ISOTHIAZOLES” (Bayer Pharma Aktiengesellschaft, priority 2014, published 2017)

Key:
[1] = tested on: human cervical tumor cell line HeLa (ATCC CCL-2); assay: SAC-Formation - Nocodazole-Induced Assay; assay type: cell-based; settings: Homo sapiens, HeLa, 24 h, HeLa cells, nocodazole 0.1 μg/ml together with test compound, decrease of mitotic cells (phospho-histone H3 Ser10)
In short: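 HeLa cells, plated overnight, were treated 24 h at 37 °C with nocodazole (0.1 μg/ml final) plus test compound (0.005–20 μM, 0.5% DMSO) added at the same time. After fixation, anti-phospho-histone H3 Ser10 and Hoechst staining gave the mitotic cell fraction by imaging. Values came from four-parameter Hill fits.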

[2] = tested on: human cervical tumor cell line HeLa (ATCC CCL-2); assay: SAC-Formation - Paclitaxel-Induced Assay; assay type: cell-based; settings: 24 h, HeLa cells, paclitaxel 0.05 μM, test range 0.005 μM-20 μM, read-out: IC50 [mol/l] SAC-Formation - Paclitaxel-Induced Assay
In short: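 HeLa cells incubated overnight at 37° C, then given paclitaxel (0.05 μM final) plus test compound (0.005–20 μM, 0.5% DMSO) together for 24 h at 37° C. Fixed cells stained for phospho-histone H3 Ser10 (mitotic cells) and Hoechst 33342 (cell count); imaging-derived mitotic index fitted by four-parameter Hill equation.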

| IC50 [1] [nM] | IC50 ([2]; Homo sapiens, HeLa) [nM] | IC50 [2] [nM] | SMILES |
| --- | --- | --- | --- |
| 720 | 350 | – | Cc1nsc(Nc2cnc(C(F)(F)F)cn2)c1C(=O)Nc1ccc(OCCNC(=O)C(F)(F)F)nc1 [Example 425, 3-Methyl-N-(6-{2-[(trifluoroacetyl)amino]ethoxy}pyridin-3-yl)-5-{[5-(trifluoro-methyl)pyrazin-2-yl]amino}-1,2-thiazole-4-carboxamide] |
| 29 | 410 | – | Cc1nsc(Nc2cnc3ccccc3n2)c1C(=O)Nc1cccc(C(=O)OC(C)(C)C)c1 [Example 49, tert-Butyl 3-({[3-methyl-5-(quinoxalin-2-ylamino)-1,2-thiazol-4-yl]carbonyl}amino)-benzoate] |
| 15 | 24 | – | Cc1nsc(Nc2ccc(C#N)cn2)c1C(=O)Nc1ccc(OC2CCCN(CC(F)F)C2)nc1 (stereo not drawn) [Example 39, 5-[(5-Cyanopyridin-2-yl)amino]-N-(6-{[1-(2,2-difluoroethyl)piperidin-3-yl]oxy}-pyridin-3-yl)-3-methyl-1,2-thiazole-4-carboxamide] |
| 950 | 1100 | – | Cc1nsc(Nc2cnc3ccccc3n2)c1C(=O)Nc1cccc(C(=O)NC(C)(C)C)c1 [Example 53, N-[3-(tert-Butylcarbamoyl)-phenyl]-3-methyl-5-(quinoxalin-2-ylamino)-1,2-thiazole-4-carboxamide] |
| 170 | 1200 | – | Cc1nsc(Nc2cnc3ccccc3n2)c1C(=O)Nc1cccc(NC(=O)C(F)(F)F)c1 [Example 432, 3-Methyl-5-(quinoxalin-2-ylamino)-N-{3-[(trifluoroacetyl)amino]phenyl}-1,2-thiazole-4-carboxamide] |
| 150 | 390 | – | Cc1nsc(Nc2ccc(C#N)cn2)c1C(=O)Nc1ccc(OC2CCCN(CC(F)(F)F)C2)nc1 (stereo not drawn) [Example 40, 5-[(5-Cyanopyridin-2-yl)amino]-3-methyl-N-(6-{[1-(2,2,2-trifluoroethyl)piperidin-3-yl]oxy}pyridin-3-yl)-1,2-thiazole-4-carboxamide] |
| 28 | 780 | – | Cc1nsc(Nc2cnc3ccccc3n2)c1C(=O)Nc1cccc(C(=O)N2CCOCC2)c1 [Example 52, 3-Methyl-N-[3-(morpholin-4-ylcarbonyl)phenyl]-5-(quinoxalin-2-ylamino)-1,2-thiazole-4-carboxamide] |
| – | 29 | – | Cc1nsc(Nc2cnc(C(F)(F)F)cn2)c1C(=O)Nc1ccc(OC[C@H]2CCCN(CCC(F)(F)F)C2)nc1 [Example 378, 3-methyl-5-{[5-(trifluoromethyl)pyrazin-2-yl]amino}-N-(6-{[(3S)-1-(3,3,3-trifluoropropyl)piperidin-3-yl]methoxy}pyridin-3-yl)-1,2-thiazole-4-carboxamide] |
| 72 | 94 | – | COCCOc1ccc(NC(=O)c2c(C)nsc2Nc2nc3c(C(F)(F)F)cccc3s2)cc1F [Example 1, N-[3-Fluoro-4-(2-methoxyethoxy)phenyl]-3-methyl-5-{[4-(trifluoromethyl)-1,3-benzothiazol-2-yl]amino}-1,2-thiazole-4-carboxamide] |
| 20000 | 20000 | – | Cc1nsc(Nc2cc(C#N)ccn2)c1C(=O)Nc1ccc(OCCCN)nc1 [Example 44, N-[6-(3-Aminopropoxy)pyridin-3-yl]-5-[(4-cyanopyridin-2-yl)amino]-3-methyl-1,2-thiazole-4-carboxamide] |
| 1200 | 4300 | – | Cc1nsc(Nc2cnc3ccccc3n2)c1C(=O)Nc1cccc(C(=O)N[C@@H](CCC(N)=O)C(=O)OC(C)(C)C)c1 [Example 56, tert-butyl N^2-[3-({[3-methyl-5-(quinoxalin-2-ylamino)-1,2-thiazol-4-yl]carbonyl}amino)-benzoyl]glutaminate] |
| 1800 | 13000 | – | Cc1nsc(Nc2ccc(C#N)cn2)c1C(=O)Nc1ccc(OC2CCCN(CCF)C2)nc1 (stereo not drawn) [Example 38, 5-[(5-Cyanopyridin-2-yl)amino]-N-(6-{[1-(2-fluoroethyl)piperidin-3-yl]oxy}pyridin-3-yl)-3-methyl-1,2-thiazole-4-carboxamide] |
| 230 | 130 | – | COCCOc1ccc(NC(=O)c2c(C)nsc2Nc2nc3c(C(F)(F)F)cccc3s2)cn1 [Example 3, N-[6-(2-Methoxyethoxy)pyridin-3-yl]-3-methyl-5-{[4-(trifluoromethyl)-1,3-benzo-thiazol-2-yl]amino}-1,2-thiazole-4-carboxamide] |
| 890 | 620 | – | Cc1nsc(Nc2cnc(C(F)(F)F)cn2)c1C(=O)Nc1ccc(OCCCNC(=O)C(F)(F)F)nc1 [Example 428, 3-Methyl-N-(6-{3-[(trifluoroacetyl)amino]propoxy}pyridin-3-yl)-5-{[5-(trifluoro-methyl)pyrazin-2-yl]amino}-1,2-thiazole-4-carboxamide] |
| 20000 | 20000 | – | Cc1nsc(Nc2cnc3ccccc3n2)c1C(=O)Nc1cccc(C(=O)O)c1 [Example 51, 3-({[3-Methyl-5-(quinoxalin-2-ylamino)-1,2-thiazol-4-yl]carbonyl}amino)benzoic acid] |
| 86 | – | – | Cc1nsc(Nc2ccc(C#N)cn2)c1C(=O)Nc1ccc(OC[C@H]2CCN(CC(F)(F)F)C2)nc1 [Example 405, 5-[(5-Cyanopyridin-2-yl)amino]-3-methyl-N-(6-{[(35)-1-(2,2,2-trifluoroethyl)pyrrolidin-3-yl]methoxy}pyridin-3-yl)-1,2-thiazole-4-carboxamide] |
| 990 | 1300 | – | Cc1nsc(Nc2cnc3ccccc3n2)c1C(=O)Nc1cccc(C(=O)NCC(=O)OC(C)(C)C)c1 [Example 54, tert-Butyl N-[3-({[3-methyl-5-(quinoxalin-2-ylamino)-1,2-thiazol-4-yl]carbonyl}amino)-benzoyl]glycinate] |
| 210 | 590 | – | Cc1nsc(Nc2ccc(C#N)cn2)c1C(=O)Nc1ccc(OC2CCCN(C(=O)OC(C)(C)C)C2)nc1 (stereo not drawn) [Example 36, tert-Butyl 3-({5-[({5-[(5-cyanopyridin-2-yl)amino]-3-methyl-1,2-thiazol-4-yl}-carbonyl)amino]pyridin-2-yl}oxy)piperidine-1-carboxylate] |
| 11 | 45 | – | Cc1nsc(Nc2cncc(C(F)(F)F)n2)c1C(=O)Nc1ccc(OCCN(C)C(=O)OC(C)(C)C)nc1 [Example 430, tert-Butyl methyl{2-[(5-{[(3-methyl-5-{[6-(trifluoromethyl)pyrazin-2-yl]amino}-1,2-thiazol-4-yl)carbonyl]amino}pyridin-2-yl)oxy]ethyl}carbannate] |
| 980 | 980 | – | Cc1nsc(Nc2nc3c(C(F)(F)F)cccc3s2)c1C(=O)Nc1ccc(OCCO)c(F)c1 [Example 4, N-[3-Fluoro-4-(2-hydroxyethoxy)phenyl]-3-methyl-5-{[4-(trifluoromethyl)-1,3-benzothiazol-2-yl]amino}-1,2-thiazole-4-carboxamide] |
| 30 | 27 | 42 | Cc1nsc(Nc2cnc(C(F)(F)F)cn2)c1C(=O)Nc1ccc(F)c(OC[C@@H]2CCN(CC(F)F)C2)c1 [Example 403, N-(3-{[(3R)-1-(2,2-difluoroethyl)pyrrolidin-3-yl]methoxy}-4-fluorophenyl)-3-methyl-5-{[5-(trifluoromethyl)pyrazin-2-yl]amino}-1,2-thiazole-4-carboxamide] |
| 13 | 11 | – | Cc1nsc(Nc2cnc(C(F)(F)F)cn2)c1C(=O)Nc1ccc(F)c(O[C@@H]2CCN(CC(F)F)C2)c1 [Example 412, N-(3-{[(3R)-1-(2,2-Difluoroethyl)pyrrolidin-3-yl]oxy}-4-fluorophenyl)-3-methyl-5-{[5-(trifluoromethyl)pyrazin-2-yl]amino}-1,2-thiazole-4-carboxamide] |
| 39 | 44 | – | Cc1nsc(Nc2cnc(C(F)(F)F)cn2)c1C(=O)Nc1ccc(F)c(O[C@@H]2CCN(CCC(F)(F)F)C2)c1 [Example 414, N-(4-Fluoro-3-{[(3R)-1-(3,3,3-trifluoropropyl)pyrrolidin-3-yl]oxy}phenyl)-3-methyl-5-{[5-(trifluoromethyl)pyrazin-2-yl]amino}-1,2-thiazole-4-carboxamide] |
| 970 | 3500 | – | Cc1nsc(Nc2cnc3ccccc3n2)c1C(=O)Nc1ccc(NCCN(C)C(=O)OC(C)(C)C)nc1 [Example 434, tert-Butyl methyl(2-{[5-({[3-methyl-5-(quinoxalin-2-ylamino)-1,2-thiazol-4-yl]carbonyl}amino)pyridin-2-yl]amino}ethyl)carbamate] |
| 240 | 1800 | – | Cc1nsc(Nc2cnccn2)c1C(=O)Nc1ccc(OC2CCCN(C(=O)OC(C)(C)C)C2)nc1 (stereo not drawn) [Example 41, tert-Butyl 3-{[5-({[3-methyl-5-(pyrazin-2-ylamino)-1,2-thiazol-4-yl]carbonyl}amino)-pyridin-2-yl]oxy}piperidine-1-carboxylate] |
| 27 | – | – | Cc1nsc(Nc2cnc(C(F)(F)F)cn2)c1C(=O)Nc1ccc(OCC2CCN(CC(F)F)CC2(F)F)nc1 (stereo not drawn) [Example 401, N-(6-{[1-(2,2-difluoroethyl)-3,3-difluoropiperidin-4-yl]methoxy}pyridin-3-yl)-3-methyl-5-{[5-(trifluoromethyl)pyrazin-2-yl]amino}-1,2-thiazole-4-carboxamide] |
| – | 190 | – | CCCN1CCC(COc2ccc(NC(=O)c3c(C)nsc3Nc3cnc(C(F)(F)F)cn3)cn2)C(F)(F)C1 (stereo not drawn) [Example 394, N-{6-[(3,3-difluoro-1-propylpiperidin-4-yl)methoxy]pyridin-3-yl}-3-methyl-5-{[5-(trifluoromethyl)pyrazin-2-yl]amino}-1,2-thiazole-4-carboxamide] |
